Measurements from patent US8110571B2, “Benzimidazole and benzothiazole derivatives, method for preparing same, use thereof as drugs, pharmaceutical compositions and novel use especially as c-MET inhibitors” (Aventis Pharma S.A., priority 2005, dated 2012).
Counter-ions that a name gives are not always drawn.

SMILES	melting point
O=C(NCCC1CCN(Cc2ccccc2)CC1)Nc1nc2ccc(OS(=O)(=O)c3c(Cl)cccc3Cl)cc2s1 (as salt: benzenesulfonate) [Example 33, 2-({[2-(1-Benzylpiperidin-4-yl)ethyl]carbamoyl}amino)-1,3-benzothiazol-6-yl 2,6-dichlorobenzenesulfonate]	105 °C
O=C(NCCN1CCN(Cc2ccccc2)CC1)Nc1nc2ccc(OS(=O)(=O)c3c(Cl)cccc3Cl)cc2s1 (as salt: benzenesulfonate) [Example 34, 2-({[2-(4-Benzylpiperazin-1-yl)ethyl]carbamoyl}amino)-1,3-benzothiazol-6-yl 2,6-dichlorobenzenesulfonate]	102 °C
O=C(NCCN1CCNCC1)Nc1nc2ccc(OS(=O)(=O)c3c(Cl)cccc3Cl)cc2s1 (as salt: benzenesulfonate) [Example 36, 2-{[(2-piperazin-1-ylethyl)carbamoyl]amino}-1,3-benzothiazol-6-yl 2,6-dichlorobenzenesulfonate]	158 °C
O=C(NCCN1CCOCC1)Nc1nc2ccc(OS(=O)(=O)c3ccccc3Cl)cc2s1 (as salt: benzenesulfonate) [Example 40, 2-{[(2-Morpholin-4-ylethyl)carbamoyl]amino}-1,3-benzothiazol-6-yl 2-chlorobenzenesulfonate]	100 °C
O=C(Nc1nc2ccc(OS(=O)(=O)c3c(F)cccc3F)cc2s1)C1CC1 (as salt: benzenesulfonate) [Example 41, 2-[(Cyclopropylcarbonyl)amino]-1,3-benzothiazol-6-yl 2,6-difluorobenzenesulfonate]	145 °C
O=C(CCc1cccnc1)Nc1nc2ccc(OS(=O)(=O)c3c(Cl)cccc3Cl)cc2s1 (as salt: benzenesulfonate) [Example 43, 2-[(3-Pyridin-3-ylpropanoyl)amino]-1,3-benzothiazol-6-yl 2,6-dichlorobenzenesulfonate]	240 °C
O=C(CCN1CCOCC1)Nc1nc2ccc(OS(=O)(=O)c3c(Cl)cccc3Cl)cc2s1 (as salt: benzenesulfonate) [Example 44, 2-[(3-Morpholin-4-ylpropanoyl)amino]-1,3-benzothiazol-6-yl 2,6-dichlorobenzenesulfonate]	179 °C
O=C(Cc1cccnc1)Nc1nc2ccc(OS(=O)(=O)c3c(Cl)cccc3Cl)cc2s1 (as salt: benzenesulfonate) [Example 45, 2-[(Pyridin-3-ylacetyl)amino]-1,3-benzothiazol-6-yl 2,6-dichlorobenzenesulfonate]	218 °C
O=C(CCC1CCNCC1)Nc1nc2ccc(OS(=O)(=O)c3c(Cl)cccc3Cl)cc2s1 (as salt: benzenesulfonate) [Example 47, 2-[(3-Piperidin-4-ylpropanoyl)amino]-1,3-benzothiazol-6-yl 2,6-dichlorobenzenesulfonate]	134 °C
O=C(CCCC1CCNCC1)Nc1nc2ccc(OS(=O)(=O)c3c(Cl)cccc3Cl)cc2s1 (as salt: benzenesulfonate) [Example 48, 2-[(4-Piperidin-4-ylbutanoyl)amino]-1,3-benzothiazol-6-yl 2,6-dichlorobenzenesulfonate]	114 °C
O=C(NCCCN1CCOCC1)Nc1nc2ccc(OS(=O)(=O)c3c(Cl)cccc3Cl)cc2s1 (as salt: benzenesulfonate) [Example 53, 2-{[(3-morpholin-4-ylpropyl)carbamoyl]amino}-1,3-benzothiazol-6-yl 2,6-dichlorobenzenesulfonate]	94 °C
CN(CCCNC(=O)Nc1nc2ccc(OS(=O)(=O)c3c(Cl)cccc3Cl)cc2s1)c1ccccc1 (as salt: benzenesulfonate) [Example 54, 2-[({3-[methyl(phenyl)amino]propyl}carbamoyl)amino]-1,3-benzothiazol-6-yl 2,6-dichlorobenzenesulfonate]	68 °C
O=C(NCCN1CCC(Cc2ccccc2)CC1)Nc1nc2ccc(OS(=O)(=O)c3c(Cl)cccc3Cl)cc2s1 (as salt: benzenesulfonate) [Example 55, 2-({[2-(4-benzylpiperidin-1-yl)ethyl]carbamoyl}amino)-1,3-benzothiazol-6-yl 2,6-dichlorobenzenesulfonate]	95 °C
O=C(NCCN1CCCC1)Nc1nc2ccc(OS(=O)(=O)c3c(Cl)cccc3Cl)cc2s1 (as salt: benzenesulfonate) [Example 56, 2-{[(2-pyrrolidin-1-ylethyl)carbamoyl]amino}-1,3-benzothiazol-6-yl 2,6-dichlorobenzenesulfonate]	99 °C
O=C(Nc1nc2ccc(OS(=O)(=O)c3c(Cl)cccc3Cl)cc2s1)N1CCC[C@@H]1CN1CCCC1 (as salt: benzenesulfonate) [Example 57, 2-({[(2R)-2-(pyrrolidin-1-ylmethyl)pyrrolidin-1-yl]carbonyl}amino)-1,3-benzothiazol-6-yl 2,6-dichlorobenzenesulfonate]	204 °C
O=C(Nc1nc2ccc(OS(=O)(=O)c3c(Cl)cccc3Cl)cc2s1)N1CCC[C@H]1CN1CCCC1 (as salt: benzenesulfonate) [Example 58, 2-({[(2S)-2-(pyrrolidin-1-ylmethyl)pyrrolidin-1-yl]carbonyl}amino)-1,3-benzothiazol-6-yl 2,6-dichlorobenzenesulfonate]	210 °C

SMILES	melting point
O=C(NCCCN1CCCC1)Nc1nc2ccc(OS(=O)(=O)c3c(Cl)cccc3Cl)cc2s1 (as salt: benzenesulfonate) [Example 59, 2-{[(3-pyrrolidin-1-ylpropyl)carbamoyl]amino}-1,3-benzothiazol-6-yl 2,6-dichlorobenzenesulfonate]	96 °C
CN1CCN(CCNC(=O)Nc2nc3ccc(OS(=O)(=O)c4c(Cl)cccc4Cl)cc3s2)CC1 (as salt: benzenesulfonate) [Example 60, 2-({[2-(4-methylpiperazin-1-yl)ethyl]carbamoyl}amino)-1,3-benzothiazol-6-yl 2,6-dichlorobenzenesulfonate]	100 °C
CN1CCCC1CCNC(=O)Nc1nc2ccc(OS(=O)(=O)c3c(Cl)cccc3Cl)cc2s1 (stereo not shown) (as salt: benzenesulfonate) [Example 61, 2-({[2-(1-methylpyrrolidin-2-yl)ethyl]carbamoyl}amino)-1,3-benzothiazol-6-yl 2,6-dichlorobenzenesulfonate]	178 °C
CN(C)CCCNC(=O)Nc1nc2ccc(OS(=O)(=O)c3c(Cl)cccc3Cl)cc2s1 (as salt: benzenesulfonate) [Example 62, 2-({[3-(dimethylamino)propyl]carbamoyl}amino)-1,3-benzothiazol-6-yl 2,6-dichlorobenzenesulfonate]	100 °C
CC1CCCC(C)N1CCNC(=O)Nc1nc2ccc(OS(=O)(=O)c3c(Cl)cccc3Cl)cc2s1 (stereo not shown) (as salt: benzenesulfonate) [Example 63, 2-({[2-(2,6-dimethylpiperidin-1-yl)ethyl]carbamoyl}amino)-1,3-benzothiazol-6-yl 2,6-dichlorobenzenesulfonate]	122 °C
O=C(NCCN1CCCCC1)Nc1nc2ccc(OS(=O)(=O)c3c(Cl)cccc3Cl)cc2s1 (as salt: benzenesulfonate) [Example 64, 2-{[(2-piperidin-1-ylethyl)carbamoyl]amino}-1,3-benzothiazol-6-yl 2,6-dichlorobenzenesulfonate]	172 °C
O=C(NCCCN1CCCC1=O)Nc1nc2ccc(OS(=O)(=O)c3c(Cl)cccc3Cl)cc2s1 (as salt: benzenesulfonate) [Example 65, 2-({[3-(2-oxopyrrolidin-1-yl)propyl]carbamoyl}amino)-1,3-benzothiazol-6-yl 2,6-dichlorobenzenesulfonate]	195 °C
CN(C)c1ccc(CNC(=O)Nc2nc3ccc(OS(=O)(=O)c4c(Cl)cccc4Cl)cc3s2)cc1 (as salt: benzenesulfonate) [Example 66, 2-({[4-(dimethylamino)benzyl]carbamoyl}amino)-1,3-benzothiazol-6-yl 2,6-dichlorobenzenesulfonate]	154.5 °C
O=C(NCCCN1CCN(Cc2c(F)cccc2Cl)CC1)Nc1nc2ccc(OS(=O)(=O)c3c(Cl)cccc3Cl)cc2s1 (as salt: benzenesulfonate) [Example 67, 2-[({3-[4-(2-chloro-6-fluorobenzyl)piperazin-1-yl]propyl}carbamoyl)amino]-1,3-benzothiazol-6-yl 2,6-dichlorobenzenesulfonate]	93 °C
O=C(NCCCN1CCN(Cc2ccccc2)CC1)Nc1nc2ccc(OS(=O)(=O)c3c(Cl)cccc3Cl)cc2s1 (as salt: benzenesulfonate) [Example 68, 2-({[3-(4-benzylpiperazin-1-yl)propyl]carbamoyl}amino)-1,3-benzothiazol-6-yl 2,6-dichlorobenzenesulfonate]	218 °C
CN1CCN(CCCNC(=O)Nc2nc3ccc(OS(=O)(=O)c4c(Cl)cccc4Cl)cc3s2)CC1 (as salt: benzenesulfonate) [Example 69, 2-({[3-(4-methylpiperazin-1-yl)propyl]carbamoyl}amino)-1,3-benzothiazol-6-yl 2,6-dichlorobenzenesulfonate]	96.5 °C
O=C(NCc1ccc(N2CCOCC2)cc1)Nc1nc2ccc(OS(=O)(=O)c3c(Cl)cccc3Cl)cc2s1 (as salt: benzenesulfonate) [Example 70, 2-{[(4-morpholin-4-ylbenzyl)carbamoyl]amino}-1,3-benzothiazol-6-yl 2,6-dichlorobenzenesulfonate]	177 °C
O=C(Nc1nc2ccc(OS(=O)(=O)c3c(Cl)cccc3Cl)cc2s1)NC1CCCCCC1 (as salt: benzenesulfonate) [Example 72, 2-[(cycloheptylcarbamoyl)amino]-1,3-benzothiazol-6-yl 2,6-dichlorobenzenesulfonate]	163 °C
O=C(Nc1nc2ccc(OS(=O)(=O)c3c(Cl)cccc3Cl)cc2s1)NC1CCCC1 (as salt: benzenesulfonate) [Example 73, 2-[(cyclopentylcarbamoyl)amino]-1,3-benzothiazol-6-yl 2,6-dichlorobenzenesulfonate]	249 °C
CC(C)NC(=O)Nc1nc2ccc(OS(=O)(=O)c3c(Cl)cccc3Cl)cc2s1 (as salt: benzenesulfonate) [Example 74, 2-[(isopropylcarbamoyl)amino]-1,3-benzothiazol-6-yl 2,6-dichlorobenzenesulfonate]	169 °C
